Experimental findings from article PMC12040169 (PLOS Biology, 2025) are described below.

This data set is described as follows: in vitro. As to conditions: human, hela cells, % viability.

For orientation: viability means a read-out of living cells in per cent, often relative to untreated cells.

As to `CS(=O)(=O)N1CCN(c2nc(C(F)(F)F)nc3ccsc23)CC1` [CBK304594], the viability at 28.5 h, 10 µM is 91.1%.

For the compound `O=C(CC1(C(F)(F)F)NCCN1)c1cccc([N+](=O)[O-])c1` [CBK263443], the viability at 28.5 h, 10 µM was found to be 83.1%.

`O=C(N/N=C/c1cc2c(cc1Cl)OCO2)C(O)c1ccccc1` (stereo not drawn) [CBK262177]: the viability at 28.5 h, 10 µM amounted to 112%.

`O=C(Cc1ccc(-c2ccccc2)cc1)NCc1nnc(-c2cccs2)o1` [CBK286295]: the viability at 28.5 h, 10 µM is 94.3%.

`CC(=O)c1ccc(-c2nccnc2NCCc2ccncc2)s1` [CBK037300]: the viability at 28.5 h, 10 µM turned out to be 99.9%.

Take `COCCCOc1nc2ccccc2nc1NC(C)C` [CBK115737]: the viability at 28.5 h, 10 µM is 99.3%.

Turning to `COc1ccc(-c2ccc(SCC(=O)Nc3cc(C)on3)nn2)cc1` [CBK287634], the viability at 28.5 h, 10 µM worked out at 88.7%.

On to `Cc1csc(Sc2nccnc2N2CCCC2)n1` [CBK093735], for which the viability at 28.5 h, 10 µM is 90.3%.

Consider `O=C(CSc1nnc(-c2cccnc2)s1)Nc1ccc([N+](=O)[O-])cc1` [CBK268777], for which the viability at 28.5 h, 10 µM is 112%.

As to `CS(=O)(=O)N(CC(=O)Nc1ccc2ccccc2c1)c1ccc(Cl)cc1Cl` [CBK267501], the viability at 28.5 h, 10 µM came to 87.6%.

For `O=C(NC1CCCCC1)N[C@H]1[C@H](O)[C@@H](N2CCN(c3ccccc3)CC2)[C@@H]2OC[C@H]1O2` [CBK288822], the viability at 28.5 h, 10 µM amounted to 95%.

With `O=C1NC2(CCN(C(=O)CC3c4ccccc4Oc4ccccc43)CC2)Nc2ccccc21` [CBK286307], the viability at 28.5 h, 10 µM turned out to be 98.8%.

For the compound `O=C(CN1C(=O)[C@@H]2CCCN2C(=O)c2ccccc21)N1CCCC1` [CBK282434], the viability at 28.5 h, 10 µM was found to be 104%.

As for `CC(C)(C)OC(=O)N1CCCC(C(=O)NC(C(N)=O)c2ccccc2)C1` (stereo not drawn) [CBK305766], the viability at 28.5 h, 10 µM was determined as 99.8%.

In the case of `Nc1ccc(C(=O)Nc2ccc(Nc3cc(-c4ccccc4OCc4ccccc4)ncn3)cc2)cc1` [CBK091092], the viability at 28.5 h, 10 µM amounted to 94.4%.

`O=C(N[C@H]1CCN2C(=O)c3cc(-c4ccccc4F)ccc3NC(=O)[C@H]12)c1cnccn1` [CBK289274]: the viability at 28.5 h, 10 µM came to 84.7%.

Turning to `c1ccc2nc3c(nc2c1)sc1nc2ccccc2n13` [CBK268872], the viability at 28.5 h, 10 µM was determined as 104%.

In the case of `COc1cccc(C2C(C(=O)c3ccc(Br)cc3)=C(O)C(=O)N2CCCN2CCOCC2)c1` (stereo not drawn) [CBK264862], the viability at 28.5 h, 10 µM amounted to 103%.

For the compound `CC(C)c1noc(NCCc2cn3c(n2)CCCC3)n1` [CBK306444], the viability at 28.5 h, 10 µM came to 93.5%.

As to `Cc1nc(CNC(=O)c2nn(-c3cccc(C(C)C)c3)cc2O)no1` [CBK305269], the viability at 28.5 h, 10 µM was 89%.

For `CS(=O)(=O)CCC(C(=O)O)N1C(=O)c2ccc(Oc3ccc(Cl)cc3)cc2C1=O` (stereo not drawn) [CBK266377], the viability at 28.5 h, 10 µM is 92%.

Turning to `N=c1n(Cc2ccccc2)c2ccccc2n1CC(O)COc1ccc(Cl)cc1` (stereo not drawn) [CBK262469C], the viability at 28.5 h, 10 µM came to 94.4%.

`COc1nccnc1N1CCN(Cc2ccccc2)CC1` [CBK084210]: the viability at 28.5 h, 10 µM turned out to be 90%.

As to `CN1CCN(CC(O)COc2ccccc2)CC1` (stereo not drawn) [CBK278191G], the viability at 28.5 h, 10 µM is 83.8%.

Regarding `CC(=O)Nc1ccc(CNC(=O)CN(C)Cc2nc(C3CC3)no2)cc1` [CBK306695], the viability at 28.5 h, 10 µM came out at 114%.

Regarding `C[C@H](Nc1cncc(-c2ccc(F)cc2F)n1)c1ccccc1` [CBK065684], the viability at 28.5 h, 10 µM was 98.9%.

Regarding `COc1ccc(-c2cc(C(F)(F)F)c3c(n2)sc2c(=O)cc(O)[nH]c23)cc1OC` [CBK270201], the viability at 28.5 h, 10 µM turned out to be 84.6%.

`CCn1c(C(O)c2ccc(OCc3ccccc3)cc2)nc2ccccc21` (stereo not drawn) [CBK263458]: the viability at 28.5 h, 10 µM was 96.1%.

`O=C(c1ccncc1)N1CCc2cc(-c3csc(C4CC4)n3)ccc21` [CBK288618]: the viability at 28.5 h, 10 µM was 94.5%.

Consider `COC(=O)c1c(C)oc(C)c1S(=O)(=O)Nc1ccc(C(C)C)cc1` [CBK057115], for which the viability at 28.5 h, 10 µM came to 88%.

For the compound `CCCCc1ccc(NS(=O)(=O)c2ccc(C)c(C(=O)O)c2)cc1` [CBK296111], the viability at 28.5 h, 10 µM is 116%.

Consider `C[C@H]1CN2C[C@H](O)CC2CN1Cc1ccc(Br)s1` (stereo partly drawn) [CBK285439], for which the viability at 28.5 h, 10 µM stood at 96.1%.

`COc1cccc(C2CC(=O)Nc3n[nH]cc32)c1OC` (stereo not drawn) [CBK287889]: the viability at 28.5 h, 10 µM is 88.1%.

Turning to `O=C(CN1C(=O)CCC1=O)NCCc1ccccc1` [CBK262326], the viability at 28.5 h, 10 µM was 98.3%.

Regarding `CCCNC(=O)CN(C)Cc1nc(-c2cccc(C(F)(F)F)c2)no1` [CBK305672], the viability at 28.5 h, 10 µM is 103%.

Consider `Cc1ccc2c(c1)N(CCO)/C(=C/c1sc3ccccc3[n+]1CCCS(=O)(=O)[O-])S2` [CBK293965], for which the viability at 28.5 h, 10 µM was 93.5%.

In the case of `O=C(Cn1cc(C(=O)Nc2ccc(F)cc2)ccc1=O)Nc1nc2c(s1)CCCCC2` [CBK286080], the viability at 28.5 h, 10 µM is 99.3%.

Take `COc1ccc(C(NC(=O)[C@H]2CCCN2C(=O)COc2ccccc2)c2ccccc2C)cn1` (stereo partly drawn) [CBK076682]: the viability at 28.5 h, 10 µM was found to be 96.1%.

For `Cc1ccc(Nc2cc(-c3ccsc3)ncn2)cc1NS(C)(=O)=O` [CBK091149], the viability at 28.5 h, 10 µM was found to be 97.9%.

In the case of `O=C(O)c1cc2nc3c(c(C(F)(F)F)n2n1)CCc1ccccc1-3` [CBK263025], the viability at 28.5 h, 10 µM is 102%.

On to `COC(=O)[C@@H](C)NC(=O)[C@H]1CN(C(=O)Nc2ccccc2)CCN1C(=O)c1cccs1` [CBK289629], for which the viability at 28.5 h, 10 µM amounted to 97.2%.

With `O=C(COc1ccc(S(=O)(=O)NC2CCCC2)cc1)Nc1ccc2c(c1)OCCO2` [CBK266431], the viability at 28.5 h, 10 µM was 101%.

With `CCCC(=O)Nc1ccccc1OC1CCNCC1` [CBK045902T], the viability at 28.5 h, 10 µM was 98%.

For the compound `N=C(N)NS(=O)(=O)c1ccc(N/C=C\C(=O)c2ccncc2)cc1` [CBK264185], the viability at 28.5 h, 10 µM was 91.8%.

`O=C(COc1ccc(NS(=O)(=O)c2ccc3oc4cc([N+](=O)[O-])ccc4c3c2)cc1)N1CCOCC1` [CBK268252]: the viability at 28.5 h, 10 µM stood at 100%.

With `Oc1ccc2cc(-c3ccc(OC(F)(F)F)cc3)cnc2n1` [CBK081300], the viability at 28.5 h, 10 µM came out at 32.8%.

Take `CCOc1ccc2c(c1)cc(C(=O)NCc1cc(CC)no1)n2C` [CBK281553]: the viability at 28.5 h, 10 µM worked out at 95.5%.

Take `Cc1ccc(S(=O)(=O)N(CC(O)CN2CCCCC2)c2ccccc2)cc1` (stereo not drawn) [CBK263570]: the viability at 28.5 h, 10 µM was 97.7%.

Turning to `Cc1cccc(-c2nnn(CC(=O)O)n2)c1` [CBK068105], the viability at 28.5 h, 10 µM worked out at 102%.

`COc1ccc(O)c(C(=O)c2cnn(-c3ccc(Cl)c(C(=O)O)c3)c2)c1` [CBK297914]: the viability at 28.5 h, 10 µM was 90.2%.

Consider `Cc1nn(CC(=O)Nc2ccc3c(c2)nc(CN2CCCC2)n3C)c(=O)c2ccccc12` [CBK268465], for which the viability at 28.5 h, 10 µM came to 97.5%.

In the case of `Cc1cc2ncn(CC(=O)NCc3ccccc3)c2cc1C` [CBK200213], the viability at 28.5 h, 10 µM came out at 104%.

Consider `Cn1c(=O)c2c(nc(CN3CCN(C(=O)c4ccco4)CC3)n2Cc2ccccc2)n(C)c1=O` [CBK269437], for which the viability at 28.5 h, 10 µM came to 93%.

Turning to `Cc1[nH]c(=O)c(C#N)c(C)c1CCC(=O)NCc1cn2ccccc2n1` [CBK306325], the viability at 28.5 h, 10 µM is 93%.

Consider `O=C(NCc1ccco1)c1nccnc1-c1ccc(COc2ccc3c(c2)CCCC3)cc1` [CBK050851], for which the viability at 28.5 h, 10 µM was found to be 89.8%.

In the case of `O=C1C2(c3ccccc3)CN3CN(C2)CC1(c1ccccc1)C3` [CBK262245], the viability at 28.5 h, 10 µM was 93.5%.

`CN(C)c1ccc(/C=N/NC(=O)CCn2c3ccccc3c3cc(I)ccc32)cc1` [CBK262902]: the viability at 28.5 h, 10 µM was 84.5%.

Take `COc1ccc(NC(=O)c2csc(Nc3ccccc3)n2)cc1OC` [CBK287840]: the viability at 28.5 h, 10 µM was 83.7%.

As to `COCc1cc(=O)oc2cc(NS(C)(=O)=O)ccc12` [CBK008516], the viability at 28.5 h, 10 µM came out at 119%.

`Cc1sc(NC(=S)NC(=O)c2ccco2)c(C(N)=O)c1C` [CBK266272]: the viability at 28.5 h, 10 µM was 98.9%.

For the compound `C=C(C)Cn1c(SCC(C)C)nnc1-c1ccc(F)cc1` [CBK200085], the viability at 28.5 h, 10 µM was 99.9%.

In the case of `CN(C)Cc1ccccc1-n1ncc(-c2ccc(Br)cc2F)n1` [CBK112924], the viability at 28.5 h, 10 µM is 90.9%.

On to `c1ccc(-c2onc3cc4c(cc23)OCCO4)cc1` [CBK287869], for which the viability at 28.5 h, 10 µM was found to be 82.8%.

Regarding `Cc1cc(C(C)(C)C)cc(C)c1COC(=O)c1ccncc1` [CBK296995], the viability at 28.5 h, 10 µM is 112%.

Take `COc1cccc2cc(C(=O)Nc3ccc4[nH]ccc4c3)oc12` [CBK149819]: the viability at 28.5 h, 10 µM turned out to be 91.5%.

Take `Cc1cc(/C=N/NC(=O)C(=O)NCc2ccccn2)c(C)n1-c1cccc(Br)c1` [CBK263815]: the viability at 28.5 h, 10 µM worked out at 93.2%.

In the case of `COc1ccccc1-c1ncc(OCC(F)(F)F)nc1NC(=O)C1CC1` [CBK145275], the viability at 28.5 h, 10 µM stood at 86.4%.

Consider `Cc1nn(CC(C)C(=O)N2CCCC(CN(C)C)C2)c(C)c1Cl` (stereo not drawn) [CBK282186], for which the viability at 28.5 h, 10 µM amounted to 102%.

For the compound `CCOC(=O)CN1CCCN(c2nccc(OCC3COc4ccccc4O3)n2)CC1` (stereo not drawn) [CBK083975], the viability at 28.5 h, 10 µM is 100%.

Take `Cc1cc(C(=O)N2CCN3C(=O)CCC32C)c(C2CC2)o1` (stereo not drawn) [CBK282092]: the viability at 28.5 h, 10 µM was 97.6%.

Turning to `COC(=O)[C@@H](C)NC(=O)[C@H]1CN(C(=O)Nc2ccccc2)CCN1C(=O)NC(C)C` [CBK289631], the viability at 28.5 h, 10 µM came out at 113%.

Turning to `COc1ncc(-c2cnc3[nH]c(=O)n(CC4CCOCC4)c3n2)cn1` [CBK064898], the viability at 28.5 h, 10 µM turned out to be 98.1%.

`Nc1nc2ccccc2n1CCOc1ccc(Cl)cc1` [CBK087352]: the viability at 28.5 h, 10 µM came to 85.9%.

`COc1ccc2c(c1)CCCN2C(=O)Cn1nc(C)cc1C` [CBK282042]: the viability at 28.5 h, 10 µM was determined as 91.5%.

Take `Cc1nc(-c2ccccc2)cc([C@H]2CN3CC[C@H]2C[C@@H]3CNS(C)(=O)=O)n1` [CBK289124]: the viability at 28.5 h, 10 µM was found to be 114%.

Turning to `COc1ccc(CCC(=O)Nc2nnc[nH]2)cc1` [CBK027896], the viability at 28.5 h, 10 µM worked out at 101%.

For `Cn1c(=O)c2c(ncn2CC(O)CO)n(C)c1=O` (stereo not drawn) [CBK200637], the viability at 28.5 h, 10 µM amounted to 98.5%.

`O=C(c1ccco1)N1CCN(c2cncc(-c3cc4ccccc4o3)n2)CC1` [CBK066044]: the viability at 28.5 h, 10 µM worked out at 101%.
